Assay results: patent publication US6469013B2, “Therapeutic compounds” (Parker Hughes Institute, priority 1998, dated 2002)

Tested on: NOD females
Assay: Spontaneous diabetes in NOD females (incidence, IPGTT, insulitis)
Assay type: in vivo, mouse
Experimental: Mice were monitored for diabetes development by testing blood glucose from 10 wk of age by One Touch Profile diabetes tracking system, as described above.
Intraperitoneal glucose tolerance test (IPGTI) was performed in the group of non-diabetic WHI-P131-treated and vehicle-treated control NOD females on the end of experimental period (25 wk of age of NOD mice). Mice were fasted for 10 hours, and the glucose solution (1.5 g/kg body weight) was injected i.p. Before and after injection of glucose, blood samples were taken and blood glucose levels were measured (as described above) at 0, 30, 60 and 120 min time points.
The group of control and WHI-P131-treated non-diabetic NOD females was sacrificed at the end of experimental period, at 25 wksof age, and characteristic histopathologic lesion of islets (insulitis) was evaluated in each mouse scoring at least 25 islets per mouse. Briefly, pancreas was removed, fixed in 10% formalin, parafin embedded, cut and stained with hematoxylin and eosin for light microscopic examinations.

COc1cc2ncnc(Nc3ccc(O)cc3)c2cc1OC [WHI-P131, 4-(4′-hydroxyl-phenyl)-amino-6,7-dimethoxyquinazoline]
diabetes incidence (20 mg/kg daily, till 18 wks of age): 56% | age at which mice started to develop diabetes (50 mg/kg daily from 5 wks, control 13 wks): 22 wks | diabetes incidence (50 mg/kg daily, 5 to 25 wks of age, at 25 wks): 18% | diabetes incidence (100 mg/kg, 'the first treatment', at 25 wks of age, p=0.007): 9% | diabetes incidence (100 mg/kg, 'the later one', at 25 wks of age, p=0.025): 18% | age at which diabetes started (100 mg/kg, short course wks 5 to 9): 10 wks | diabetes incidence (100 mg/kg, short course wks 5 to 9, by 25 wks of age): 83% | Insulitis score (100 mg/kg, treated from 5-25 wks of age, controls 1.43±0.15): 0.86±0.12 | Insulitis score (100 mg/kg, treated from 10-25 wks of age): 1.42±0.24
